Results from US7745001B2, “Synthesis of nanoassemblies containing luminescent quantum dots and magnetic nanoparticles” (University of New Orleans Research and Technology …, priority 2004, dated 2010).

Target: Concanavaline A (Con A) (Canavalia ensiformis, UniProt P02866)
Assay: dextran-Con A binding (dissociation constant)
Text: The glyconanospheres of the present invention can contain dextran molecules (or could contain other polysaccharides) on their surface that interact strongly with carbohydrate binding proteins. These glyconanospheres can be used for real-time monitoring of protein carbohydrate interactions. The inventors in their studies of the present invention focused on lectins, which are sugar binding proteins. In particular the inventors worked with Concanavaline A (Con A) which binds glycosylic residues in carbohydrates with high affinity (the dissociation constant of dextran-Con A was found in studies of the present inventors to be about 1 nanomolar).

dextran was tested. Which Kd did it give?
Its Kd is ~1 nM.
